The values that follow come from patent US20250222109A1, “STRUCTURED LIPID COMPOSITIONS” (Universität Bern, priority 2022, published 2025).

Data set [1] deals with T cell transfer colitis. Nature of the data set: T-cell transfer colitis. In kind it is in vivo, mice. An excerpt:
To induce T cell mediated colitis, CD4+ T cells were isolated from the spleen of C57/BL6 mice (Strain #: 000664; RRID:IMSR_JAX: 000664 ex. Jackson laboratories) using the CD4 T cell isolation kit from Stemcell Technologies (#19852; Cologne, Germany) and subsequently naïve T helper cells (CD3+, CD4+, CD25low, […], CD44low cells) were sorted on a FACS Aria III (Becton Dickinson; Eysins, Switzerland) as described previously (D. V. Ostanin, et al., T cell transfer model of chronic colitis: Concepts, considerations, and tricks of the tradeAm. J. Physiol.—Gastrointest. Liver Physiol. 296, 135-146 (2009); M. R. Spalinger, et al., PTPN2 controls differentiation of CD4+ T cells and limits intestinal inflammation and intestinal dysbiosis, Mucosal Immunol. 8, 918-929 (2015); M. R. Spalinger, et al., Loss of PTPN22 Promotes Intestinal Inflammation by Compromising Granulocyte-mediated Antibacterial Defence, J. Crohn's Colitis 15, 2118-2130 (2021)). 12-15 week old male and female Rag^−/− mice in the C57/BL6 background (model RAGN12 (B6.129S6-Rag2^tm1Fwa N12) ex. Taconic) were injected intraperitoneally with 2.5×10^5 naïve T helper cells (all methods used were approved under licence no. ZH043/2021). Starting on day 2 post T cell injection, the mice received one daily rectal instillation (100 μL) of empty TIF-Gels, TAC-loaded TIF-Gels or TAC in vehicle solution (1% […] in distilled water). Weight development and disease activity scores were measured on a daily basis. On the last day of the experiment (day 18), the mice were anaesthetised using a mixture of ketamine 90-120 mg/kg bodyweight (Vétoquinol, Bern, Switzerland) and xylazine 8 mg/kg bodyweight (Bayer, Lyssach, Switzerland), and were subjected to mouse endoscopy to assess the extent of endoscopic colitis (M. R. Spalinger, et al., Protein tyrosine phosphatase non-receptor type 22 modulates colitis in a microbiota-dependent manner, J. Clin. Invest. 129, 2527-2541 (2019)) using the following parameters: 1) thickening of the colon wall, 2) vascularisation/bleeding, 3) extent of fibrin deposits, 4) granular appearance of the colon wall, 5) stool consistency. Each parameter was given a score from 0 (normal) to 3 (most severe appearance), resulting in a maximal total score of 15. After colonoscopy, the mice were sacrificed and colon tissue harvested for histology and isolation of lamina propria immune cells. Immune cells were isolated from the colon, mesenteric lymph nodes and the spleen, and analysed for immune cell subsets (M. R. Spalinger, et al., (2019) Loss of PTPN22 abrogates the beneficial effect of cohousing-mediated fecal microbiota transfer in murine colitis, Mucosal Immunol. 12, 1336-1347).
To assess the microscopic extent of colitis, formalin-fixed, paraffin embedded sections of the most distal 1.5 cm of the colon were subjected to hematoxilin and eosin (H&E) staining using standard protocols (M. R. Spalinger, et al. (2019)). The sections were analysed by two blinded scientists for the extent of epithelial damage (score 0-4) and infiltration of immune cells (score 0-4) resulting in a maximal possible score of 8. Images were taken using a Zeiss Axio Imager.Z2 microscope (Zeiss), equipped with an AxioCam HRc (Zeiss, Jena, Germany) camera and ZEN imaging software (Zeiss, Germany).
To analyse cytokine levels in the colons, colon pieces were lysed in PBS (1 ml PBS/[…] tissue) using a GentleMACS device from Miltenyi Biotec (Miltenyi Biotec, Bergisch Gladbach, Germany). Lysates were then analysed for cytokines using the Bio-Plex Pro Mouse Cytokine 23-plex Assay from Bio-Rad (Hercules, CA) according to the manufacturer's instructions.
TIF-Gel acts as a platform able to host and release molecules with different polarity. Thus, the hydrophobic TAC was loaded in to TIF-Gel and its ability to reduce colitis severity was assessed also using a model of T cell mediated colitis, namely T cell transfer colitis. […]

Data set [2] can be described thus: SAXS phase identification of MLO-water mesophases (TIF-Gel). In kind it is physicochemical. The settings on record: 5 mg of TOFA and 1 mg of TAC in 100 mg of gel.
For data set [3], the system named is T cell transfer colitis. Nature of the data set: T-cell transfer colitis. In kind it is in vivo, mice. The settings on record: colonoscopy, day 19 post T cell application.
Data set [4] is described as follows: Drug encapsulation and distribution in TIF-Gel (WAXS, HPLC of gel layers). In kind it is physicochemical. On the procedure: The tube was centrifuged and kept at rest for 24 hours. Subsequently, the gel was divided into 3 different layers (Top, Middle, and Bottom), and the drug content evaluated in each by HPLC.
WAXS measurements were performed on a Bruker AXS Micro, with a microfocused X-ray source, operating at voltage and filament current of 50 kV and 1000 μA, respectively. The Cu Kα radiation (λCu Kα=1.5418 Å) was collimated by a 2D Kratky collimator, and the data were collected by a 2D Pilatus 100K detector. The scattering vector Q=(4π/λ) sin θ, with 2θ being the scattering angle, was calibrated using silver behenate. Data were collected and azimuthally averaged using the Saxsgui software to yield 1D intensity vs. scattering vector Q, with a Q range from 13 to 18 nm-1. For all measurements the samples were placed inside a stainless-steel cell between two thin replaceable mica sheets and sealed by an O-ring, with a sample volume of 10 μL and a thickness of ˜1 mm.
The TAC loaded mesophase composition comprised: a) a carrier comprising: a1) water in an amount of 16% by weight of the carrier; and a2) MLO in an amount of 84% by weight of the carrier; and b) TAC in an amount of 1% by weight of the composition.

The mark [5] stands for this setting: daily rectal instillation 100 μL.

For `C=CC[C@@H]1/C=C(\C)C[C@H](C)C[C@H](OC)[C@H]2O[C@@](O)(C(=O)C(=O)N3CCCC[C@H]3C(=O)O[C@H](/C(C)=C/[C@@H]3CC[C@@H](O)[C@H](OC)C3)[C@H](C)[C@@H](O)CC1=O)[C@H](C)C[C@@H]2OC` [TAC, tacrolimus], in the data set on T cell transfer colitis [1] (colonic tissues), the “levels of IFN-γ” value is on record as “reduced levels” and the “levels of IL-17” value was “reduced levels”. Moreover, in the data set with T cell transfer colitis [1] (daily rectal instillation), the “first signs of colitis, day post T cell transfer” value was around 10 days. Further, in the data set with T cell transfer colitis [1] (setting [5]), the “diarrhoea / disease activity score” value is recorded as “signs of diarrhoea” and the weight development entry is recorded as “progressive weight loss”. In the data set on T cell transfer colitis [1] (lamina propria, mesenteric lymph nodes and spleen), the “relative abundance of T cells” value is “reduced the relative abundance of T cells”. For the same compound, the “abundance of FOXP3+ (regulatory) T cells” value in the data set with T cell transfer colitis [1] (mouse, in vivo) was “not much effect”. Besides, in the data set on T cell transfer colitis [1] (vs empty TIF-Gels), the Th1 cells entry is recorded as “reduced”, the Th17 cells result was “reduced”, the colon length result is given as “longer colons” and the spleen weight entry is “reduced spleen weight”. In data set [2], the “effect of drug entrapment on phase identity and thermal behaviour of the carrier gel” value was “did not affect the phase identity and thermal behaviour”. The “endoscopic signs of colitis” value in the data set with T cell transfer colitis [3] is reported as “reduced endoscopic signs of colitis”. Also, in data set [4] (Top, Middle and Bottom gel layers, HPLC), the “distribution of drug in the gel matrix” value is “homogeneously distributed”. Moreover, the “drug crystallisation in the gel (WAXS)” value in data set [4] (embedded in the 3D gel structure) is “do not form crystals”. In data set [4] (encapsulated in the TIF-Gel), the encapsulation efficacy amounted to 100%.
